Test results from the NIST ThermoML archive (doi:10.1021/je400158p).
Numbers after ± are expanded uncertainties.

Assay: excess molar enthalpy (molar enthalpy of mixing); xn = mol fraction of the nth substance listed
Conditions: 298.15 K, 101 kPa, Liquid, Calvet calorimetry

Compound	excess molar enthalpy (x1 = 0.1)	excess molar enthalpy (x1 = 0.2)	excess molar enthalpy (x1 = 0.4)	excess molar enthalpy (x1 = 0.7)	excess molar enthalpy (x1 = 0.5)	excess molar enthalpy (x1 = 0.401)	excess molar enthalpy (x1 = 0.501)	excess molar enthalpy (x1 = 0.804)
CCn1cc[n+](C)c1.COP(=O)([O-])OC [1-ethyl-3-methylimidazolium dimethylphosphate] + CCO	-0.311 ± 0.00406 kcal/mol	-0.5184 ± 0.00478 kcal/mol	-0.6726 ± 0.0055 kcal/mol	-0.4333 ± 0.00406 kcal/mol				
CCn1cc[n+](C)c1.COP(=O)([O-])OC [1-ethyl-3-methylimidazolium dimethylphosphate] + O	-0.881 ± 0.00813 kcal/mol	-1.3 ± 0.0105 kcal/mol	-1.463 ± 0.0115 kcal/mol	-1.008 ± 0.00813 kcal/mol	-1.381 ± 0.011 kcal/mol			
OCCOCCO [diethylene glycol] + O		-0.291 ± 0.00335 kcal/mol				-0.291 ± 0.00335 kcal/mol	-0.275 ± 0.00311 kcal/mol	-0.111 ± 0.00263 kcal/mol
CCn1cc[n+](C)c1.COP(=O)([O-])OC [1-ethyl-3-methylimidazolium dimethylphosphate] + CO		-0.6728 ± 0.0055 kcal/mol	-0.8537 ± 0.00669 kcal/mol	-0.5566 ± 0.00478 kcal/mol				
